Results on one compound are retold here after patent US11315778B2, “Spray chambers and methods of using them” (PERKINELMER HEALTH SCIENCES CANADA, INC., priority 2016, dated 2022).

Format in all cases: cell-based
Experiment [1] has as its system ovarian cancer cell line (CP70). Briefly: Single cell ICP-MS of cisplatin-exposed CP70 cells (195Pt monitored). The note with it: over the course of eight hours, FIG. 21. The method, then: A cell suspension can be nebulized by introducing the cell suspension through a nebulizer fluidically coupled to a spray chamber as described herein. The spray chamber can select individual cells and provide them to an inductively coupled plasma. As each cell enters the plasma, it is ionized, and the resulting ion burst from the intrinsic metal species is detected by a mass spectrometer. Each cell is treated the same as an individual particle. Cell concentrations can desirably be around 100,000 cell/mL to minimize coincidence—a situation where to cells are provided at the same time to the plasma.
To determine the effectiveness of detection of cisplatin using single cell ICP-MS using the spray chambers described herein, an ovarian cancer cell line (CP70) was exposed to cisplatin and monitored over time. Analyses were carried out on a PerkinElmer NexION 350 D ICP-MS with a 2 mm quartz injector and quartz torch operating with an RF power of 1600 W. A spray chamber as shown in FIG. 2 (though the spray chambers of FIGS. 3, 4 and 5A-5D could be used instead) can be used with a high efficiency concentric glass nebulizer (Meinhard) was used with the spray chamber and the NexION 350 D instrument.
Because background levels of Pt are non-existent and there are no common interferences on 195Pt, each spike represents Pt detected in an individual cell. […]

Experiment [2] deals with A2780 ovarian cancer cell line. As to the kind of experiment: Cisplatin uptake time course, single cell ICP-MS. The method, then: (§1) Cisplatin uptake in two ovarian cancer cell lines was evaluated using single particle ICP-MS (SP-ICP-MS). The ovarian cancer cell lines A2780 and A2780/CP70 were used in all experiments. Cells were grown in RPMI […] media (Gibco™) supplemented with 10% fetal bovine serum (FBS, Gibco™), insulin (Sigma-Aldrich™), 1-glutamine (Gibco™), and pen/strep (Gibco™) under 5% CO2 at 37° C. For serum starvation experiments, cells were plated and allowed to attach to the dishes. The media was removed and replaced with serum-free media for approximately 18 hours after which the media was replaced with regular media to begin cisplatin treatment. Cisplatin was re-suspended at 1 mg/mL in sterile saline and vigorously shaken for 30 minutes prior to treatment. Cells were treated with 30μM cisplatin for a time course where samples were collected at 1, 2, 4, and 8 hours post-treatment. For analysis, cells were washed twice with phosphate-buffered saline (PBS) and collected using the non-enzymatic cell dissociation solution Cellstripper (Corning™). Cells were centrifuged at 500×g for 10 minutes. The supernatant was discarded, and the cells were resuspended in 1 mL PBS, filtered through a 70μm nylon mesh, and quantitated by hemocytometer counting. Cells were diluted in PBS to a final concentration of 100,000 cells/mL and kept on ice until injection.
(§2) Analyses were performed with PerkinElmer's NexION® ICP-MS using the Syngistix™ Single Cell Application Software Module for data collection and processing. Instrumental conditions were as follows: sample uptake rate 0.04 mL/minute, 2.0 mm id quartz injector, 1600 Watts RF power, 0.36 L/minute nebulizer gas flow rate, 0.7 L/minute makeup gas flow rate, and a 60 second sample analysis time. A Meinhard HEN nebulizer and the spray chamber of FIG. 2 were also used (though the spray chambers of FIGS. 3, 4 and 5A-5D could be used instead). The Single Cell Sample Introduction Kit (Part No. N8150031) was used for sample introduction to the NexION. The kit consists of a high-efficiency nebulizer (Part No. N8142046) and the spray chamber designed for transport of cells to the plasma. Cells (1-100 microns) are larger than droplets which typically pass through conventional spray chambers (less than 2 microns).
(§3) Ionic platinum standards were prepared in PBS to matrix match the cell sample. A standard curve was generated using 1, 2, and 3 ppb platinum standard. Transport efficiency was determined using […] gold nanoparticles in PBS.
(§4) The cells chosen for this study are the ovarian cancer cell lines A2780 and A2780/CP70, which are good models for developing the single cell method since the molecular mechanism for resistance […]. A2780 is a cisplatin-sensitive cell line, while the A2780/CP70 line is cisplatin resistant. This resistance was developed by exposing the A2780 parental cell line to increasing doses of cisplatin. The A2780/CP70 cells developed resistance by reducing cisplatin uptake in addition to up-regulating DNA repair. We explored cisplatin uptake by performing a time course experiment to analyze how the distribution of cisplatin uptake changed over time within the cellular population. Both cell lines were treated for 1, 2, 4, and 8 hours with 30μM cisplatin. […] After the data is collected, the mass distribution peak can be integrated, as shown in FIG. 30C (frequency vs mass(ag)).
(§5) The time course data was summarized by fitting each histogram with a Log Normal curve. The mean intensity was determined for each time point and plotted to show the cisplatin uptake difference between A2780 and A2780/CP70 cells over time, as shown in FIG. 33.

Experiment [3] relates to A2780/CP70 ovarian cancer cell line. Briefly: Cisplatin uptake time course, single cell ICP-MS. The method, then: as §1, §2, §3, §4, §5

For the compound `N.N.[Cl][Pt][Cl]` [cisplatin], the “Pt content within cells (cisplatin uptake)” value in experiment [1] is “increases over time”. Besides, the uptake of platinum result in experiment [2] (A2780, 30μM cisplatin, one hour of treatment) is “very little uptake of platinum”; in experiment [3] (A2780/CP70, 30μM cisplatin, one hour of treatment), “very little uptake of platinum”. The “effect of serum starvation on cisplatin uptake” value in experiment [2] (A2780, serum-starved vs control cells, FIGS. 34A and 34B) is “no effect on the uptake of cisplatin”; in experiment [3] (A2780/CP70, serum-starved vs control cells, FIGS. 34A and 34B), “no effect on the uptake of cisplatin”. The “cisplatin uptake over time (mean intensity of Log Normal fit)” value in experiment [2] (A2780 vs A2780/CP70, 30μM cisplatin, 1-8 hours, FIG. 33) is given as “increased cisplatin uptake”. In addition, the “population of cells by cisplatin content, comparison of cell lines” value in experiment [2] (A2780 vs A2780/CP70, 30μM cisplatin, eight hours) is listed as “increased population of cells with more cisplatin than A2780/CP70”.
